Experimental data published in ChEMBL document CHEMBL3596126, “Synthesis, molecular docking and anticancer studies of peptides and iso-peptides” (Bioorg Med Chem Lett, 2015).
Where a SMILES comes first, the peptide text is derived from it. Side-chain parts run from the residue outwards. The star is where a group is joined. Cbz = O=C(OCc1ccccc1)*; Boc = CC(C)(C)OC(=O)*

What was measured:
[1] = biological target: NAD(P)H dehydrogenase [quinone] 1 (Mus musculus) (UniProt Q64669); assay: Activation of Quinone reductase-1 in mouse Hepa-1c1c7 cells assessed as induction ratio at 20 ug/ml after 48 hrs by MTT assay; assay type: cell-based
Sequence of NAD(P)H dehydrogenase [quinone] 1 (Mus musculus) (Q64669 whole entry): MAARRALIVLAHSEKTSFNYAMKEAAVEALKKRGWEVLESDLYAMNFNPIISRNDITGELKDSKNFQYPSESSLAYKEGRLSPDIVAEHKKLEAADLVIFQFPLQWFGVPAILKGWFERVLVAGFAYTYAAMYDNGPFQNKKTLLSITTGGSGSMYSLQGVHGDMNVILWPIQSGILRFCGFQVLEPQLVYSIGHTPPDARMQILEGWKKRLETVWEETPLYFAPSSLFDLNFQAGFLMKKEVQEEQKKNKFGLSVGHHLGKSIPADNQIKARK

MDA-MB-231 = assay: Cytotoxicity against human MDA-MB-231 cells assessed as cell survival at 20 ug/ml relative to control; assay type: functional; details: read-out: Survival
MCF7 = assay: Cytotoxicity against human MCF7 cells assessed as cell survival at 20 ug/ml relative to control; assay type: functional; details: read-out: Survival
[2] = Cytotoxicity against HEK293 cells assessed as cell survival at 20 ug/ml after 6 hrs by SRB assay relative to control; assay type: cell-based; details: human, read-out: Survival
HEK293 = assay: Inhibition of TNF-alpha activated nuclear factor-kappa B in HEK293 cells at 20 ug/ml after 6 hrs by luciferase reporter gene assay relative to control; assay type: cell-based; details: Homo sapiens
[3] = Inhibition of TNF-alpha activated nuclear factor-kappa B in HEK293 cells after 6 hrs by luciferase reporter gene assay; assay type: cell-based; details: Homo sapiens, HEK293, 6 h

| SMILES | Ratio [1] | viability at 20 µg/mL (MDA-MB-231) [%] | viability at 20 µg/mL (MCF7) [%] | viability at 6 h, 20 ug/ml [2] [%] | inhibition (HEK293) [%] | IC50 [3] [µM] |
| --- | --- | --- | --- | --- | --- | --- |
| C[C@H](NC(=O)OCc1ccccc1)C(=O)N[C@H](C(=O)O)[C@H](C)O | 1.7 | 92.8 | 106 | 116 | – | – |
| C[C@H](NC(=O)OCc1ccccc1)C(=O)N[C@@H](Cc1ccccc1)C(=O)n1nnc2ccccc21 | 1.2 | 91.4 | 59.3 | 104 | 49.6 | – |
| C[C@H](NC(=O)OCc1ccccc1)C(=O)n1nnc2ccccc21 | 1 | 106 | 104 | 126 | 32.6 | – |
| O=C(N[C@@H](Cc1ccccc1)C(=O)n1nnc2ccccc21)OCc1ccccc1 | 1.3 | 98 | 74.2 | 104 | – | – |
| O=C(N[C@@H](Cc1ccccc1)C(=O)N[C@H](CO)C(=O)O)OCc1ccccc1 | 1.5 | 97.4 | 69.5 | 122 | 24.5 | – |
| C[C@H](OC(=O)CNC(=O)OC(C)(C)C)[C@H](NC(=O)[C@H](Cc1ccccc1)NC(=O)OCc1ccccc1)C(=O)O | 0.9 | 83.9 | 114 | 122 | -4.1 | – |
| C[C@H](NC(=O)OCc1ccccc1)C(=O)N[C@@H](CO)C(=O)O | 1.1 | 98.1 | 78.6 | 110 | 13.9 | – |
| O=C(N[C@@H](Cc1ccccc1)C(=O)NCC(=O)n1nnc2ccccc21)OCc1ccccc1 | 0.9 | 106 | 93.2 | 96.9 | 12.2 | – |
| C[C@H](O)[C@H](NC(=O)[C@H](Cc1ccccc1)NC(=O)OCc1ccccc1)C(=O)O | 2.2 | 104 | 58.3 | 122 | 55.7 | – |
| C[C@H](NC(=O)OC(C)(C)C)C(=O)n1nnc2ccccc21 | 1.2 | 90.9 | 75.8 | 122 | 35.7 | – |
| CC(C)(C)OC(=O)NCC(=O)OC[C@@H](NC(=O)[C@H](Cc1ccccc1)NC(=O)OCc1ccccc1)C(=O)O | 1.1 | 106 | 126 | 121 | 10.1 | – |
| CC(C)(C)OC(=O)NCC(=O)OC[C@H](NC(=O)[C@H](Cc1ccccc1)NC(=O)OCc1ccccc1)C(=O)O | 1.1 | 92.1 | 142 | 136 | -5.2 | – |
| C[C@H](OC(=O)CNC(=O)OC(C)(C)C)[C@H](NC(=O)[C@@H](N)Cc1ccccc1)C(=O)O | 1 | 93.9 | 93.8 | 103 | 26.3 | – |
| CC(C)(C)OC(=O)NCC(=O)n1nnc2ccccc21 | 1.1 | 108 | 90.3 | 110 | 41.3 | – |
| Cc1ccc(S(=O)(=O)N[C@@H](Cc2ccccc2)C(=O)CCl)cc1 [TPCK] | – | – | – | – | – | 5.05 |
| CC(C)(C)OC(=O)NCC(=O)OC[C@H](NC(=O)[C@@H](N)Cc1ccccc1)C(=O)O (H-Phe-Ser([Gly-Boc])-OH) | 2.4 | 99.4 | 104 | 121 | 14.8 | – |
| O=C(N[C@@H](Cc1ccccc1)C(=O)N[C@@H](CO)C(=O)O)OCc1ccccc1 | 1.2 | 99.9 | 75.8 | 119 | 18.3 | – |
| C[C@H](NC(=O)OCc1ccccc1)C(=O)N[C@H](CO)C(=O)O | 0.9 | 94.9 | 66.3 | 123 | 10.7 | – |
| c1ccc2[nH]nnc2c1 [BENZOTRIAZOLE] | 1.2 | 103 | 104 | 99.7 | 3.6 | – |
| C[C@H](NC(=O)OCc1ccccc1)C(=O)N[C@@H](Cc1ccccc1)C(=O)O | 1.1 | 98.9 | 63.9 | 113 | 18.7 | – |
| C[C@H](NC(=O)OCc1ccccc1)C(=O)N[C@@H](COC(=O)CNC(=O)OC(C)(C)C)C(=O)O (Cbz-Ala-Ser([Gly-Boc])-OH) | 2.5 | 104 | 110 | 108 | 22 | – |
